Results reported in patent publication US6821746B2, “Methods of screening for FabK antagonists and agonists” (priority 2000, dated 2004).

Biological target: T1, S.pneumoniae FabK, enoyl-ACP reductase (Streptococcus pneumoniae, UniProt Q9FBC5, T318A)
T1 construct: […]; made in house; host or cells: E. coli BL21 (DE3) harboring tRNA vector pRR692; plasmid pET24bSpfabK
Experiment: FabK enzyme activity assay (NADH oxidation at 340 nm, crotonoyl-ACP reduction)
Assay type: biochemical
Conditions: NH4+ at 100 mM; greatest activation among monovalent cations
Experimental: FabK catalyses the reduction of enoyl-ACPs with the concommitant oxidation of NADH. Crotonoyl-ACP can be prepared as described below. The reduction of crotonoyl-ACP to butyryl-ACP can be monitored by following the change in absorbance at 340 nm as NADH is oxidised.
Assays were carried out in Costar 3696 half-area plates in a final assay volume of 150 ul on a Spectramax platereader. Substrates, NADH and crotonoyl ACP, were incubated with FabK enzyme in 100 mM N-[2-acetamido]-2 iminodiacetic acid (ADA), pH 6.5, 100 mM NH4Cl, 4% glycerol at 30° C. and the reaction monitored at 340 nm. This assaying can also be performed using crotonyl CoA, NADPH or an NADH analogue as a substrate.

T1 sequence (Q9FBC5 whole entry T318A): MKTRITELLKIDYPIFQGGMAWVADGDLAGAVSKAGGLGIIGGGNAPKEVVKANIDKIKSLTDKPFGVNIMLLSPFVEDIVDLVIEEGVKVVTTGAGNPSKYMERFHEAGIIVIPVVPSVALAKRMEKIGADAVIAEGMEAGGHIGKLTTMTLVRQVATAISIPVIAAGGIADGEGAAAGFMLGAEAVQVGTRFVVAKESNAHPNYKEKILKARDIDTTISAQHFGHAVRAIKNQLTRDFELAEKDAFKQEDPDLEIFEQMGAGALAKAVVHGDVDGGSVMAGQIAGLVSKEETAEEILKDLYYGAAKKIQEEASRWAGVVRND

Cl.N [NH4+, NH4^+]
activation of the FabK reaction over the reaction with no monovalent cations: about 300 fold
